Data set [1] concerns dopaminergic neurons. The data set can be described thus: Survival of dopaminergic neurons with paraquat 12.5 μM challenge (Example 5, FIGS. 19, 20). It counts as cell-based, mouse. The protocol: (§1) Dopaminergic neurons were isolated and plated at a concentration of 1.000.000 cells/ml (100 μl/well) in a 96 well plate and cultured in medium with one or more of the various factors indicated, as described in the examples below. The survival of dopaminergic neurons in the presence and absence of various agents of the invention, either with or without paraquat challenge, is shown by the number of TH positive neurons normalized to the control treatment.
Dopaminergic neurons were isolated and plated at a concentration of 1.000.000 cells/ml (100 μl/well) in a 96 well plate. After 3-4 hours incubation at 37° C., 20 μl of medium was removed from each well. (VF=80 μl). Changes in medium and start point of the treatment were on the following day in vitro (DIV). The following protocol was employed to assess the survival of dopaminergic neurons in the presence and absence of various agents of the inventive combination, either with or without paraquat challenge. • DIV.1: Change half of medium N2 (40 μl) with fresh medium N2. • DIV.3: Change half of the medium and start with medium (control) or with medium A containing PB (0.15 mM) and TUDCA (0.5 mM), or with Medium A containing GA (normally 1 mM, 3 mM, or 10 mM) or with Medium A containing GA (1 mM or 3 mM) and PB (0.15 mM) or with Medium A containing GA (5 mM) and TUDCA (0.5 mM) or with Medium A containing PB (0.15 mM). Medium A is N2 medium but without FBS and N2-Supplement. • DIV.5: Second round of control or treatment with different treatments. Half of the medium (40 μl) was replaced by fresh medium A with the different agents. • DIV.7: Paraquat 12.5 μM treatment starts alone or in combination with the treatments explained above. Half of the medium (40 μl) was replaced by fresh medium A with the different treatment combinations or without (control). • DIV.9: Second day of treatment with Paraquat (PQ) 12.5 μM in addition to the other treatments as explained above. • DIV.11: Fixation 2% of PFA during 20 min at 37° C. or overnight at 4° C.
The effect of the different treatments on dopaminergic neurons survival upon exposure to paraquat was assessed through of TH+ neurons after treatment. Briefly, neurons were fixed using 2% paraformaldehyde for immunocytochemical analysis after treatment. Dopaminergic TH^+ neurons per well were identified and counted using an inverted fluorescence microscope (Olympus) under a 20× objective.

Data set [2] relates to dopaminergic neurons. The data set can be described thus: Survival of dopaminergic neurons with paraquat 25 μM challenge (Example 1, FIG. 1). It is filed as cell-based, mouse. The protocol:
as §1
Dopaminergic neurons were isolated and plated at a concentration of 1.000.000 cells/ml (100 μl/well) in a 96 well plate. After 3-4 hours incubation at 37° C., 20 μl of medium was removed from each well. (VF=80 μl). Changes in medium and start point of the treatment were done in the following day in vitro (DIV). The following protocol was employed in order to assess the survival of dopaminergic neurons in the presence and absence of various agents of the invention combination, either with or without paraquat challenge. • DIV.1: Change half of medium N2 (40 μl) with fresh medium N2. • DIV.3: Change half of the medium and start with medium (control) or with medium A containing LA (different concentrations) and/or GA (normally 5 mM or 10 mM). Medium A is N2 medium but without FBS and N2-Supplement. • DIV.5: Second round of control or treatment with LA and/or GA. Half of the medium (40 μl) was replaced by fresh medium A with the different agents. • DIV.7: Paraquat 25 μM treatment starts with or without GA and L-alanine. Half of the medium (40 μl) was replaced by fresh medium A with the different treatment combinations or without (control). • DIV.9: Second day of treatment with Paraquat (PQ) 25 μM in addition to the other substances (LA and GA). • DIV.10: Fixation 2% of PFA during 20 min at 37° C. or overnight at 4° C.
Primary mesencephalic neuronal cell cultures were prepared as previously described. Briefly, E14.5 embryos were obtained from C57JBL6 pregnant mice after cervical dislocation. Brain mesencephali were dissected under the microscope and digested with Trypsin-EDTA 0.12% (Life Technologies, USA) for 7 min. The trypsin reaction was then stopped by adding basic medium (BM), containing Neurobasal A medium (Gibco, USA), 1 mg/mL Pen/Strep, 10% FCS, and […] L-Glutamine, and cells were mechanically dissociated using a fire-polished Pasteur pipette. Medium was fully replaced after 5 min, centrifugation at 1200 rpm, aspiring the supernatant and adding 8 mL of fresh BM to the pellet. Concentration of cells in the medium was estimated using a Neubauer chamber and a 100 μL of medium containing 10^6 cells/mL plated per well in a 96-well plate (Greiner Sensoplate, Germany, EU). Then a 20 μL of medium was removed from the well and 24 h later, ⅓ of the media was replaced with fresh BM. […]

The conditions of data set [3]: estimated; cited from earlier work.
For data set [4], the system named is djr1.1/djr1.2 and glod-4 KO C. elegans. The data set can be described thus: Embryonic lethality in C. elegans (percentage of hatched eggs). It counts as in vivo. Conditions: worms fed with substance, FIG. 18. The protocol: All C. elegans strains were maintained on NGM agar plates seeded with Escherichia coli NA22 at 15° C.
In a further data set the test system is HeLa cells. The data set can be described thus: Intracellular calcium, Fluo4-AM loaded HeLa cells, fluorescent plate reader. It counts as cell-based. The conditions noted are these: FIG. 12. The text has this:
HeLa cells were loaded with Fluo4-AM and fluorescence was monitored with the help of a fluorescent plate reader. Values are normalized to the initial fluorescent value.
For orientation: A change in cytosolic calcium serves as a functional read-out for many receptors and channels.

Data set [5] concerns DJ-1 RNAi depleted HeLa cells. The conditions noted are these: cited from earlier work.
Data set [6] deals with dopaminergic neurons. Conditions: cited from earlier work.
The test system of data set [7] is HeLa cells treated with siRNA against PARK-7/DJ-1. The data set can be described thus: Calcium imaging on HeLa cells during mitosis after PARK-7/DJ-1 down-regulation. It is filed as cell-based. The conditions noted are these: PARK-7/DJ-1 down-regulated HeLa cells, 5 mM, FIG. 17. As for the experimental part: HeLa cells were loaded with Fluo-4 AM, a dye used to measure calcium concentration in living cells, as described by the manufacturer and recorded for 4 hours. Graphics show the variations in intracellular calcium concentration during mitosis in WT and cells treated with siRNA against PARK-7/DJ-1 to down-regulate this gene.
HeLa-Kyoto cells stably expressing histone H2B-mCherry and mouse DJ-1 were used. Cells were maintained in DMEM supplemented with 10% fetal bovine serum (FBS), 2 mM GlutaMAX, 100 unit/ml penicillin, 100 μg/ml streptomycin. For esiRNA treatment, cells were plated at a density of 15.000 cells/well in an ibidi 8 well chamber (Cat. no 80826, ibidi, Germany, EU), transfected with different esiRNAs (RLUC as empty vector, hPARK-7 and hKIF11 as positive control) (all esiRNAs were obtained from Eupheria, Germany, EU), and left for 72 hours before performing calcium imaging. esiRNA transfection was performed as follows. esiRNA was diluted in distilled water to a concentration of 20 ng/μl. For each well, two solutions were made: 1. […]
We observed that the Fluo-4 AM dye started to leak out of the cells into the medium after 1.5 hours of imaging. […] Images were analyzed using FIJI Image Analysis Freeware (https://fiji.sc). MFI of the Fluo-4 AM signal within the cell was determined using manually selected ROIs covering the whole cell area for each time-point. […]

The conditions of data set [8]: human, in vivo. The text has this: Potential side effects were closely monitored.
The conditions of data set [9]: 5 g tablet or powder by mouth; cited from earlier work.

As for `C[n+]1ccc(-c2cc[n+](C)cc2)cc1` [PQ, Paraquat, reference compound], the “number of TH positive neurons normalized to the control treatment” value is given as 0.58 with dopaminergic neurons [1] (PQ 12.5 μM alone, FIG. 19) and 0.44 with dopaminergic neurons [1] (PQ 12.5 μM alone, FIG. 20). Further, the “survival of dopaminergic neurons (number of TH positive neurons normalized to the control treatment)” value in the data set with dopaminergic neurons [2] (PQ 25 μM alone) was “severe reduction in neuron survival”.

As for `O=C(O)CCCc1ccccc1` [PB, 4-Phenylbutyric acid, reference compound], the “number of TH positive neurons normalized to the control treatment” value in the data set on dopaminergic neurons [1] (PQ 12.5 μM + 0.15 mM PB, FIG. 19) stood at 0.72.

For the compound `OCCOCCO` [diethylene glycol], in data set [3], the minimum toxic dose was 0.14 mg glycolic acid per kg of body weight.

In the case of `C[C@@H](O)C(=O)O` [DL, D-(−)-lactic acid], the “embryonic lethality (percentage of hatched eggs)” value in data set [4] was “rescue of embryonic lethality”. Besides, in the data set on HeLa cells, the “intracellular calcium (Fluo4-AM fluorescence normalized to initial value)” value is reported as “reduce intracellular calcium”. Further, the mitochondrial potential entry in [5] is on record as “maintain or rescue mitochondrial potential”. Also, in the data set with dopaminergic neurons [6], the “survival of dopaminergic neurons” value is “rescued the survival of dopaminergic neurons”. Also, the “calcium influx during mitosis” value in data set [7] is listed as “able to rescue this phenotype”.

For `C[C@H](N)C(=O)O` [LA, L-Alanine], in data set [8], the “prevention of kidney damage or stones, renal or liver disfunction” value was “sufficient to prevent any kidney damage or stones” and the “side effects / function of the kidney or liver” value is listed as “avoid any unwanted side effects or reductions in function of the kidney or liver”. Also, the “survival of dopaminergic neurons (rescue)” value in the data set with dopaminergic neurons [2] (0.01 mM LA alone with PQ 25 μM) was “no rescue”.

Regarding sodium phenylbutyrate, in data set [9], the “time to metabolism into phenylacetate” value is given as “within half an hour”, the “time to peak concentration in the bloodstream” value is “within an hour” and the “time until detected in the blood” value is at most 15 min.

Source of the values: patent publication US20230277491A1, “PHARMACEUTICAL COMBINATION COMPRISING GLYCOLIC ACID AND L-ALANINE” (priority 2020, published 2023).
